Reference: patent publication US4950792A, “Substituted p,p'-methylene-bis-anilines” (Lonza Ltd., priority 1985, dated 1990)

Tests used:
[1] = thermal stability: exotherm on heating; assay type: physicochemical; details: for exotherm of the product / time after which an exotherm could be determined: 350° C.
Experimental: Further, it was possible to establish that the compounds according to the invention are extremely temperature-stable. Thus, most of such compounds could be heated to 350° C. (comparison of MOCA around 200° C.) without the occurrence of an exotherm. The maximum possible working temperature with the new compounds consequently is substantially higher than with the usual chain-lengthening agents (comparison with MOCA, 140° C.). If this temperature is not used, at least the safe, decomposition-free working temperature range is substantially greater than the prior art compounds.

[2] = prior art; cited from earlier work

SMILES: Nc1ccc(Cc2ccc(N)c(Cl)c2)cc1Cl [Amine I, 4,4'-methylene-bis(2-chloroaniline), reference compound]
- temperature to which compound could be heated without the occurrence of an exotherm ([1]; comparison with MOCA): around 200 °C
- carcinogenicity [2]: carcinogenicity

SMILES: CCc1c(N)c(Cl)cc(Cc2cc(Cl)c(N)c(CC)c2Cl)c1Cl [Amine IV, 4,4'-Methylene-bis(2,5-dichloro-6-ethylaniline)]
- exotherm of the product ([1]; time not stated): An exotherm

SMILES: CCC(C)c1cc(Cc2cc(C(C)CC)c(N)c(C(C)CC)c2Cl)c(Cl)c(C(C)CC)c1N (stereo not drawn) [Amine IX, 4,4'-Methylene-bis-(3-chloro-2,6-di-sec-butylaniline)]
- exotherm of the product ([1]; over 8 hours): No exotherm

SMILES: CCc1cc(Cc2cc(CC)c(N)c(CC)c2Cl)c(Cl)c(CC)c1N [Amine V, 4,4'-Methylene-bis-(3-chloro-2,6-diethylaniline)]
- exotherm of the product ([1]; over 8 hours): No exotherm

SMILES: CCc1cc(Cc2cc(CC)c(N)c(C)c2Cl)c(Cl)c(C)c1N [Amine VI, 4,4'-Methylene-bis-(3-chloro-2-methyl-6-ethylaniline)]
- exotherm of the product ([1]; over 8 hours): No exotherm

SMILES: Cc1cc(Cc2cc(C)c(N)c(C(C)C)c2Cl)c(Cl)c(C(C)C)c1N [Amine VII, 4,4'-Methylene-bis-(5-chloro-2-methyl-6-isopropylaniline)]
- temperature up to which no exotherm could be determined [1]: > 320 °C

SMILES: Cc1c(N)c(C(C)C)cc(Cc2cc(C(C)C)c(N)c(C)c2Cl)c1Cl [Amine VIII, 4,4'-Methylene-bis(3-chloro-2-methyl-6-isopropylaniline)]
- exotherm of the product ([1]; over 8 hours): No exotherm

SMILES: CCC(C)c1c(N)c(C)cc(Cc2cc(C)c(N)c(C(C)CC)c2Cl)c1Cl (stereo not drawn) [Amine X, 4,4'-Methylene-bis(5-chloro-2-methyl-6-sec-butylaniline)]
- temperature up to which no exotherm could be determined [1]: > 340 °C

SMILES: CCc1c(N)c(C)cc(Cc2cc(C)c(N)c(CC)c2Cl)c1Cl [Example 2, 4,4'-Methylene-bis-(5-chloro-2-methyl-6-ethylaniline)]
- exotherm of the product ([1]; over 8 hours): No exotherm

SMILES: CC(C)c1cc(Cc2cc(C(C)C)c(N)c(C(C)C)c2Cl)c(Cl)c(C(C)C)c1N [Example 4, 4,4'-Methylene-bis(3-chloro-2,6-diisopropylaniline)]
- time after which an exotherm could be determined [1]: 3 h

SMILES: CCC(C)c1cc(Cc2cc(C(C)CC)c(N)c(C)c2Cl)c(Cl)c(C)c1N (stereo not drawn) [Example 9, 4,4'-Methylene-bis(3-chloro-2-methyl-6-sec-butylaniline)]
- time after which an exotherm could be determined [1]: 2 h
